Patent EP2338492A1, “Methods and compositions for the treatment of alzheimer” (Universidad del Pais Vasco, priority 2009, dated 2011)
Where two headings read alike, the source gives them in different places.

Experiments:
[1] = system: neurons from CA1 in organotypic slices; experiment: Measurement of Ca2+ in organotypic slices (fluo-4); type: cell-based; details: for [Ca2+]i in CA1 neurons of organotypic slices: kainate 1 mM (positive control)
Description: (§1) Brain was removed and two hemispheres were separated in HBSS. Thalamus and midbrain was removed and each hemisphere sliced with a tissue chopper (McIlwan Tissue Chopper, Campden Instruments Ltd, Lafayette, IN, USA) in order to obtain coronal slices of 400 µm of thickness. Entorhinal cortex, in connection with hippocampus, were isolated under a dissection microscope, 2 slices plated on each Millicell CM culture inserts (Millipore Ibérica, Madrid, Spain) and maintained in Neurobasal medium supplemented with 0.5% B27, 25% horse serum, 25% HBSS and […] gentamycin at 37°C. Experiments were performed at 7-10 days in vitro.
Ca^2+ levels in hippocampus were monitored by fluorescence microscopy using the Ca^2+ indicator fluo-4 (Molecular Probes, Invitrogen, Barcelona, Spain). Slices were incubated with fluo-4-AM (5 µM and 0.01 % of pluronic acid) for 45 min at 37 °C. Experiments were performed in a chamber continuously perfused with incubation buffer. Drugs were perfused by a micromanifold with a quartz/polyimide tube of 200 µm ID, attached to a micromanipulator in order to perfuse the drugs directly to the cells. The perfusion chamber was mounted on the stage of a Leica DMLFSA up-right microscope equipped with a 150 W xenon lamp Polychrome V (T.I.L.L. Photonics, Martinsried, Germany) and a HCX Apo 40 x water immersion objective (Leica). Cells were visualized with a CCD camera (EM CCD 9100; Hamamatsu Photonics Iberica, Barcelona, Spain).

Cortical neurons [2] = experiment: Cell viability and toxicity assay (LDH release); type: cell-based, Sprague-Dawley rat
Description: (§2) Primary neuron cultures were obtained from the cortical lobes of E18 Sprague-Dawley rat embryos according to previously described procedures (Gottlieb M. et al. 2006. Neurobiol. Dis. 23 374-386.) Cells were resuspended in B27 Neurobasal medium plus 10% FBS (Sigma; St Louis, MO, USA) and then seeded onto poly-1-ornithine-coated glass coverslips at 1x10^5 cells per coverslip (12 mm in diameter) and 48-well plates at 1.5 x 10^5 per well. One day later, the medium was replaced by serum-free-, B27-supplemented Neurobasal medium. The cultures were essentially free of astrocytes and microglia; they were maintained at 37°C and 5% CO2. Cultures were used 8-10 days after plating.
Antagonists and inhibitors were added to the cultures 30 min before the Aβ. Twenty four hours after drug application, cellular damage was estimated by measuring the level of lactate dehydrogenase released (LDH; Cytotox 96®, Promega, Madison, WI) from damaged cells into the culture media. Data were normalized to the activity of LDH released from vehicle-treated cells (100%) and calculated as a percentage of the control. Results were expressed as the means ± SEM of at least three independent experiments performed in triplicates.

[3] = system: entorhinal cortex-hippocampus organotypic cultures; experiment: Cell death in organotypic cultures by propidium iodide uptake; type: cell-based; details: Aβ oligomers 100 nM, 4 days, co-incubation with MK801 10 µM or CNQX 30 µM
Description: as §1
Antagonists were added to cultures 30 min before the Aβ. Cell death in organotypic cultures was evaluated by cellular uptake of propidium iodide (PI). Slices were stained by adding 10 µM PI into the culture for 2 h at 37°C and washed with PBS by two times for 10 min. Slices were fixed with 4% PFA in PBS for 40 min at room temperature. Afterwards, the slices were excited with 510―560 nm light and the emitted fluorescence acquired at 610 nm using a rhodamine filter on an inverted fluorescence microscope (Cell Observer Z1, Zeiss). PI fluorescence images were captured with a Plan NeoFluar 2.5 x objective (Zeiss), using an EM CCD camera (Hamamatsu, C9100-13), controlled by Axio Vision program (Zeiss). Images were analyzed with the ImageJ analysis program (NIH, MD, USA) and neuronal cell death was expressed as the percentage of the mean gray value of each treatment vs. control.

AMPA receptors = experiment: Whole-cell patch-clamp recording of Aβ-induced currents with Mg2+, no glycine, with or without cyclothiazide; type: cell-based, Sprague-Dawley rat; details: Aβ 1 µM + CTZ 100 µM; CNQX 30 µM; n=6
Description: as §2
Whole-cell recordings were performed at room temperature using the EPC-7 patch-clamp amplifier (HEKA Elektronik, Lambrecht, Germany). Currents were recorded at a holding membrane potential of -70 mV. Extracellular bath solution with a pH of 7.3 contained the following (in mM): 140 NaCl, 5 KCl, 2.5 CaCl2, 1 MgCl2, 10 HEPES and 10 mM glucose. Patch-clamp pipettes (3-5 MΩ) were filled with internal solution at a pH of 7.3 containing the following (in mM): 140 K-gluconate, 1 CaCl2, 2 MgCl2, 10 HEPES, 10 EGTA, 2 Mg-ATP, 0.2 Na-GTP.
We then measured the effects of antagonists of NMDA or AMPA receptor on [Ca^2+]¡ in neurons exposed to Aβ plus CTZ (5 µM and 100 µM, respectively; Fig 2B).

[4] = system: cultured cortical neurons; experiment: Ca2+ imaging in the cytosol (fura-2 AM); type: cell-based, Sprague-Dawley rat; details: for effect on Aβ-induced increase in [Ca2+]i: Aβ 5 µM, coapplication, NMDA antagonists n=70, voltage-gated Ca2+ channel inhibitors n=66
Description: as §2
[Ca^2+]¡ was determined according to the method described previously (G. Grynkiewicz, et al. 1985. J. Biol. Chem. 260:3440-3450). Neurons were loaded with fura-2 AM (5 µM; Molecular Probes, Invitrogen, Barcelona, Spain) in culture medium for 30 min at 37°C. Cells were washed in HBSS containing 20 mM HEPES, pH 7.4, 10 mM glucose, and 2 mM CaCl2 (incubation buffer) for 10 min at room temperature. Experiments were performed in a coverslip chamber continuously perfused with incubation buffer at 4 ml/min. The perfusion chamber was mounted on the stage of a inverted epifluorescence microscope (Zeiss Axiovert 35; Oberkochen, Germany) equipped with a 150 W xenon lamp Polychrome IV (T.I.L.L. Photonics, Martinsried, Germany) and a Plan Neofluar 40 x oil immersion objective (Zeiss). Cells were visualized with a high-resolution digital black/white CCD camera (ORCA C4742-80-12 AG; Hamamatsu Photonics Iberica). […] At the end of the assay, in situ calibration was performed with the successive addition of […] and 2 M Tris/50 mM EGTA, pH 8.5. Data were analyzed with Excel (Microsoft, Seattle, WA, USA) and Prism (GraphPad Software, San Diego, CA, USA) software.

Cortical neurons [5] = experiment: Measurement of intracellular reactive oxygen species (CM-H2DCFDA); type: cell-based, Sprague-Dawley rat; details: 2 hours
Description: as §2
Neurons were exposed to Aβ oligomers alone or with GluR antagonists as described. Cells were loaded with CM-H2DCFDA at 30 µM to assay the ROS levels. Calcein-AM (1 µM; Molecular Probes, Invitrogen, Barcelona, Spain) was used to quantify the number of cells within the reading field. Fluorescence was measured using a Synergy-HT fluorimeter (Bio-Tek Instruments Incl, Beverly, MA, USA; excitation at 485 nm, emission at 527 nm). All experiments (n≥3) were performed at least in quadruplicate and plotted as means ± SEM.

Cortical neurons [6] = experiment: Analysis of mitochondrial membrane potential (JC-1); type: cell-based, Sprague-Dawley rat; details: Aβ 5 µM, 2 hours, in conjunction with GluR antagonist
Description: as §2
Briefly, after drug treatment, cells were loaded with 3 µM JC-1 for 15 min at 37°C and were washed with HBSS without phenol red by two times to eliminate the excess of dye. In the cytosol the monomeric form of this dye fluoresces green (excitation at 485 nm, emission at 527 nm), whereas within the mitochondrial matrix highly concentrated JC-1 forms aggregates that fluoresce red (excitation at 485 nm, emission at 590 nm). Both JC-1 monomers and aggregates were detectable using a Synergy-HT fluorimeter (Bio-Tek Instruments Incl, Beverly, MA, USA) and the changes in mitochondrial potential were calculated as the red/green ratio in each condition. All experiments (n≥3) were performed at least in triplicate and plotted as meant SEM.

NMDA receptor = type: cell-based, Sprague-Dawley rat
neurons = experiment: Measurement of mitochondrial Ca2+ (Rhod-2 AM); type: cell-based, Sprague-Dawley rat; details: for effect on Aβ-induced [Ca2+]mit rise: Aβ 5 µM together with NMDA receptor antagonist
Description: as §2
Rhod-2 AM (Molecular Probes, Invitrogen, Barcelona, Spain) was used to measure mitochondrial Ca^2+ according to the previous procedure with modifications (G. Hajnóczky, L.D. et al. 1995. Cell 82 415-424) Rhod2-AM has a net positive charge, which facilitates its sequestration into mitochondria due to membrane potential-driven uptake. Cells were loaded with 2 µM rhod2-AM for 6 hours. The residual cytosolic fraction of the dye was eliminated when the cells were kept in culture for an additional 18h after loading, whereas the mitochondrial dye fluorescence was maintained. Fluorescence images of rhod-2 were acquired using 550 nm excitation and 590 nm emission. The fluorescence of rhod-2 was not calibrated in terms of [Ca^2+]mit since it is not a ratiometric dye.

[7] = Aβ 5 µM, in conjunction with GluR antagonist
[8] = Aβ 5 µM, 24 h, AP5 100 µM, MK801 50 µM, memantine 50 µM, CNQX 30 µM, ZVAD-F 50 µM, DEVD 100 µM, DPQ 30 µM, added 30 min before Aβ

## 6-Cyano-7-nitroquinoxaline-2,3-dione [CNQX]
[1]; Aβ 20 µM in the pipette, MK801 50 µM (n=9), CNQX 30 µM (n=43), both (n=50)
  effect on Aβ-induced [Ca2+]i response in organotypic slices: greatly reduced
Cortical neurons [2]
  effect on Aβ toxicity (Aβ-induced cell death): greatly attenuated
[3]; entorhinal cortex
  PI uptake, fold as compared to control slices treated with antagonist alone: 0.73 ± .01 fold
[3]; hippocampus
  PI uptake, fold as compared to control slices treated with antagonist alone: 1.3 ± 0.4 fold
AMPA receptors
  effect on current activated by Aβ with CTZ: blocked
[4]
  [Ca2+]i increase, % of control: 50 ± 4 % of control
Cortical neurons [5]; [7]
  ROS levels with respect to control (100%, non-treated cells): 106 ± 6.3%
Cortical neurons [6]
  mitochondrial potential with respect to control (100%, non-treated cells): 86 ± 3%
NMDA receptor
  Aβ-produced inward current, Aβ + CNQX vs 100 % Aβ alone: 98.3 ± 6.8%

## N[C@H](CCCP(=O)(O)O)C(=O)O [AP5, D-(-)-2-Amino-5-phosphonopentanoic acid]
Cortical neurons [2]; [8]
  effect on Aβ toxicity (Aβ-induced cell death): greatly attenuated
[4]; Aβ 5 µM plus CTZ 100 µM, CNQX 30 µM (n=17), AP5 100 µM (n=17), both (n=18)
  [Ca2+]i increase, % of control: 45 ± 2 % of control
[4]
  effect on Aβ-induced increase in [Ca2+]i: nearly abolished
Cortical neurons [5]; [7]
  ROS levels with respect to control (100%, non-treated cells): 102 ± 11%
Cortical neurons [6]
  mitochondrial potential with respect to control (100%, non-treated cells): 90 ± 2%
neurons
  effect on Aβ-induced [Ca2+]mit rise: reduced
NMDA receptor
  effect on Aβ oligomer-induced inward current: reduced the peak of the currents

## O=C1NCCc2c(OCCCCN3CCCCC3)cccc21 [DPQ]
Cortical neurons [2]; [8]
  effect on Aβ toxicity (Aβ-induced cell death): reduced

## N#CC(C#N)=NNc1ccc(OC(F)(F)F)cc1 [FCCP]
neurons; FCCP 25 µM, internal control
  rhod-2 fluorescence (mitochondrial Ca2+): rapid and transitory reduction of rhod-2 fluorescence

## C=C(C)[C@H]1CN[C@H](C(=O)O)[C@H]1CC(=O)O [Kainate]
[1]; Aβ 20 µM in the pipette
  [Ca2+]i in CA1 neurons of organotypic slices: increases

## C[C@]12N[C@H](Cc3ccccc31)c1ccccc12 [MK801]
[1]
  effect on Aβ-induced [Ca2+]i response in organotypic slices: greatly reduced
Cortical neurons [2]
  effect on Aβ toxicity (Aβ-induced cell death): greatly attenuated
[3]; entorhinal cortex
  PI uptake, fold as compared to control slices treated with antagonist alone: 1.2 ± 0.4 fold
[3]; hippocampus
  PI uptake, fold as compared to control slices treated with antagonist alone: 0.9 ± 0.2 fold
[4]
  effect on Aβ-induced increase in [Ca2+]i: nearly abolished
Cortical neurons [5]; [7]
  ROS levels with respect to control (100%, non-treated cells): 104 ± 3.4%
Cortical neurons [6]
  mitochondrial potential with respect to control (100%, non-treated cells): 85 ± 3%
neurons
  effect on Aβ-induced [Ca2+]mit rise: reduced

## Aβ oligomers: soluble Aβ1-42 oligomers prepared from Aβ1-42 (ABX) in Hams F-12 at 4°C for 24 h
[1]; Aβ 20 µM in the pipette
  [Ca2+]i in CA1 neurons of organotypic slices: increased
Cortical neurons [5]; Aβ 5 µM alone
  ROS levels with respect to control (100%, non-treated cells): 124 ± 7.8%
neurons; Aβ 5 µM
  [Ca2+]mit levels with respect to the control assay (incubation buffer): increased
